Measured values reported in PMC9145622, “Synthesis, Biological Evaluation, and Docking Studies of Antagonistic Hydroxylated Arecaidine Esters Targeting mAChRs” (Molecules, 2022).

Assays:
hM1 = target: T1, hM1 (Homo sapiens, UniProt P11229); assay: Competitive [3H]NMS radioligand binding, CHO-K1 membranes expressing hM1; details: for Ki: [3H]NMS, CHO-hM1 cell membrane preparations, read-out: Affinity: Ki ± SD hM1; for x-Fold Selectivity for hM1 vs. hM2: ratio of the Ki values hM2/hM1; for x-Fold Selectivity for hM1 vs. hM3: ratio of the Ki values hM3/hM1; for x-Fold Selectivity for hM1 vs. hM4: ratio of the Ki values hM4/hM1; for x-Fold Selectivity for hM1 vs. hM5: ratio of the Ki values hM5/hM1
T1 sequence (P11229 1-460): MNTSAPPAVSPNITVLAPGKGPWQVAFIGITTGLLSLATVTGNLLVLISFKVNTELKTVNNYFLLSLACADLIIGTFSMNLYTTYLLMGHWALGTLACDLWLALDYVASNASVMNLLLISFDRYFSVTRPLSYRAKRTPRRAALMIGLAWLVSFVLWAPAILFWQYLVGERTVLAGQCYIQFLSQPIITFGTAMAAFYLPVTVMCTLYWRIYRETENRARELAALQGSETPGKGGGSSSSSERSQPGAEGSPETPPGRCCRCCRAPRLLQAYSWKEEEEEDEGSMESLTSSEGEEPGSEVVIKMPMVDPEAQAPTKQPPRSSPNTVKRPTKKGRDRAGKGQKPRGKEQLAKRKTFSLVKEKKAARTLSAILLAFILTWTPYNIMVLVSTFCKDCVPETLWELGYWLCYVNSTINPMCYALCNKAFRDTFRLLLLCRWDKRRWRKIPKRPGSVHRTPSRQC
Text: (§1) The arecaidine esters’ affinities towards the human mAChR subtypes hM1–hM5 were studied in a competitive radioligand binding assay using CHO-K1 cell membrane homogenates expressing a single mAChR subtype and tritiated N-methyl scopolamine methyl chloride ([^3H]NMS). To speed up our affinity testing regime, we subjected all test substances to preliminary single-concentration displacement assays, as described previously. Compounds with percent displacements below 75% at any of the subtypes were dropped from further investigations (Table S1). For compounds meeting the percent displacement threshold (8c, 10b, 10c, 17b, 18b, and 25), inhibition constants (Ki) were assessed in dose-dependent displacement experiments (Table 2).
(§2) Cell membranes bearing hM1-hM5 receptors were prepared as described previously. Briefly, stably transfected CHO-K1 cells were grown to at least 80% confluency in T175 flasks, washed with ice-cold DPBS, and scraped into a mixture of ice-cold 2 mL 10 mM Tris-HCl, 1 mM EDTA-buffer, pH 7.4 and 200 µL protease inhibitor. A cell homogenate was prepared by passing the cell suspension through a G29 needle. The cell homogenates corresponding to two T175 flasks were combined and subsequently centrifuged (10 min, 1000× g, 4 °C). Ultracentrifugation of the supernatant (1 h, 100,000× g, 4 °C) yielded a membrane pellet, which was suspended in 250 µL 50 mM Tris-HCl buffer, pH 7.4 and stored at −80 °C.
(§3) Then, 5 µL of test compound in DMSO, 50 µL of [^3H]NMS in assay buffer, and 445 µL of membrane suspension in assay buffer were incubated for 90 min at 23 °C in PP tubes. Maximum binding was measured by using 5 µL DMSO, and nonspecific binding was measured by using 5 µL of 1 µM scopolamine in DMSO. The effective concentration of [^3H]NMS was 0.2 nM, 0.3 nM, 0.8 nM, 0.2 nM, and 1 nM for M1–M5 and 4–30 µg membrane were used per tube. The membrane-bound radioactivity was recovered by filtration through Whatman™ GF/B glass fiber filters presoaked in aqueous 0.1% PEI using an M-36 tygon tubed cell harvester (Brandel®, Gaithersburg, MD, USA). Membranes were washed three times with ice-cold washing buffer (50 mM Tris, pH 7.4) before being dried, transferred to 2 mL scintillation cocktail (UltimaGold™, high flashpoint LSC cocktail, PerkinElmer, Waltham, MA, USA) and counted in a β-counter (Hidex TDCR liquid scintillation counter in CPM mode). IC50 values were calculated by a variable slope logistic regression using at least five distinct concentrations of test compounds, pipetted in triplicates.

hM5 = target: T2, hM5 (Homo sapiens, UniProt P08912); assay: Competitive [3H]NMS radioligand binding, CHO-K1 membranes expressing hM5; details: for Ki: [3H]NMS, CHO-hM5 cell membrane preparations, read-out: Affinity: Ki ± SD hM5
T2 sequence (P08912 1-532): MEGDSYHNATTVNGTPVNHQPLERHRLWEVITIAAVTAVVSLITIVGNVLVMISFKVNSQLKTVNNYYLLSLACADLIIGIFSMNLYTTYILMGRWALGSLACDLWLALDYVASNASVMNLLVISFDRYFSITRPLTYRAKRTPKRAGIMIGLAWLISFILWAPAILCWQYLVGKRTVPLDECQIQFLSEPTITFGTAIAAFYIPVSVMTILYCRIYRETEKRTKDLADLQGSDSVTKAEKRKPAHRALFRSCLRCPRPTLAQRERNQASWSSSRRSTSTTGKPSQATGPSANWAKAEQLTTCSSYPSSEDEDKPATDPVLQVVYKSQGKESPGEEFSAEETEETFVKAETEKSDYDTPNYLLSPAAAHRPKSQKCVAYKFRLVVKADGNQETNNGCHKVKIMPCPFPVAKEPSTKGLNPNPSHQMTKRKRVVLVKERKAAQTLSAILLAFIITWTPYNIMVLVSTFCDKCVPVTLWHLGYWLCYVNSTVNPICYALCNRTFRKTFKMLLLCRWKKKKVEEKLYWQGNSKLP
Text: as §1, §2, §3

Row | Structure (SMILES) | Ki (hM1) [nM] | x-Fold Selectivity for hM1 vs. hM2 (hM1) [x-fold] | x-Fold Selectivity for hM1 vs. hM3 (hM1) [x-fold] | x-Fold Selectivity for hM1 vs. hM4 (hM1) [x-fold] | x-Fold Selectivity for hM1 vs. hM5 (hM1) [x-fold] | Ki (hM5) [nM] | preference for hM5R over hM1R (hM5; in vitro binding affinities)
1 | CN1CCC=C(C(=O)OCC(O)(c2ccccc2)c2ccccc2)C1 [Compound 25, 2-hydroxy-2,2-diphenylethyl 1-methyl-1,2,5,6-tetrahydropyridine-3-carboxylate] | 231 ± 60 | >4.3 | 1.2 | 0.9 | 1.2 | 284 ± 62 | –
2 | CN1CCC=C(C(=O)OCc2ccc(CO)cc2)C1 [Compound 8c, 4-(hydroxymethyl)benzyl 1-methyl-1,2,5,6-tetrahydropyridine-3-carboxylate] | 525 ± 36 | >1.9 | 1.3 | 1.3 | 0.8 | 417 ± 73 | –
3 | CN1CCC=C(C(=O)OCc2cccc(O)c2)C1 [Compound 18b, 3-hydroxybenzyl 1-methyl-1,2,5,6-tetrahydropyridine-3-carboxylate] | 259 ± 75 | – | 0.7 | 2.4 | 0.35 | 90 ± 27 | almost threefold

More lines, now with the values ahead:

Row | Ki (hM1) [nM] | x-Fold Selectivity for hM1 vs. hM2 (hM1) [x-fold] | x-Fold Selectivity for hM1 vs. hM3 (hM1) [x-fold] | x-Fold Selectivity for hM1 vs. hM4 (hM1) [x-fold] | x-Fold Selectivity for hM1 vs. hM5 (hM1) [x-fold] | Ki (hM5) [nM] | preference for hM5R over hM1R (hM5; in vitro binding affinities) | Structure (SMILES)
4 | 74 ± 3.2 | 13.2 | 2.0 | 1.3 | 1.0 | 72 ± 13 | – | CN1CCC=C(C(=O)OC(c2ccccc2)c2ccc(CO)cc2)C1 (centres unmarked) [Compound 10c, (4-(hydroxymethyl)phenyl)(phenyl)methyl 1-methyl-1,2,5,6-tetrahydropyridine-3-carboxylate]
5 | 5.5 ± 0.5 | – | 3.7 | 3.3 | 2.0 | 11 ± 1.5 | – | CN1CCC=C(C(=O)OC(c2ccccc2)c2cccc(O)c2)C1 (centres unmarked) [Compound 17b, (3-hydroxyphenyl)(phenyl)methyl 1-methyl-1,2,5,6-tetrahydropyridine-3-carboxylate]
